According to patent US20070112035A1, “Substituted oxyarenes” (BAYER CROPSCIENCE AKTIENGESELLSCHAFT, priority 2003, published 2007):
Read-outs that look alike come from different tables or passages of the source. One block for each compound: values may come before it.

Assays:
[1] = system: fall armyworm larvae (Spodoptera frugiperda); test: Spodoptera frugiperda test (spray treatment); format: in vivo; details: 100 ppm active substance, maize leaf slices
From the text: Spodoptera frugiperda Test (Spray Treatment) Solvent: 78 Parts by weight of acetone • • 1.5 Parts by weight of dimethylformamide Emulsifier: 0.5 Parts by weight of alkyl-aryl polyglycol ether For the production of a practical active agent preparation, one mixes 1 part by weight of active substance with the specified amount of solvent and emulsifier and dilutes the concentrate to the desired concentration with water containing an emulsifier. Maize leaf slices (Zea mays) are sprayed with an active substance preparation of the desired concentration and filled with fall armyworm larvae (Spodoptera frugiperda) after drying. After the desired time the effect in % is determined. In doing so, 100% means that all larvae were killed; 0% means that no larvae were killed.

[2] = system: common spider mite (Tetranychus urticae); test: Tetranychus test (OP-resistant/spray treatment); format: in vivo; details: 100 ppm active substance, spray treatment, bean leaf slices, OP-resistant
From the text: Tetranychus Test (OP-Resistant/Spray Treatment)
Solvent: 78 Parts by weight of acetone • • 1.5 Parts by weight of dimethylformamide
Emulsifier: 0.5 Parts by weight of alkyl-aryl polyglycol ether
(§1) For the production of a practical active agent preparation, one mixes 1 part by weight of active substance with the specified amount of solvent and emulsifier and dilutes the concentrate to the desired concentration with water containing an emulsifier.
Bean leaf slices (Phaseolus vulgaris) that are affected by all stages of the common spider mite (Tetranychus urticae) are sprayed with a active substance preparation of the desired concentration.
After the desired time the effect in % is determined. In doing so, 100% means that all spider mites were killed; 0% means that no spider mites were killed.

[3] = log P (physical data); format: physicochemical
[4] = system: Meloidogyne incognita egg/larvae suspension; test: Meloidogyne test (gall formation on lettuce); format: in vivo; details: 20 ppm active substance; nematicidal effect by gall formation, 100% = no galls
From the text: Meloidogyne Test Solvent: 7 Parts by weight of dimethylformamide Emulsifier: 2 Parts by weight of alkyl-aryl polyglycol ether For the production of a practical active agent preparation, one mixes 1 part by weight of active substance with the specified amount of solvent and emulsifier and dilutes the concentrate to the desired concentration with water. Vessels are filled with sand, active substance solution, Meloidogyne incognita egg/larvae suspension and lettuce seeds. The lettuce seeds germinate and the seedlings grow. The galls grow on the roots. After the desired time, the nematicidal effect is determined by means of gall formation in %. In doing so, 100% means that no galls were found; 0% means that the number of galls on the treated plants corresponds to the untreated control.

[5] = system: fall armyworm larvae (Spodoptera exigua); test: Spodoptera exigua test (cabbage leaves, immersion); format: in vivo
Protocol: (§2) Solvent: 7 Parts by weight of dimethylformamide
(§3) Emulsifier: 2 Parts by weight of alkyl-aryl polyglycol ether
as §1
Cabbage leaves (Brassica oleracea) are treated through immersion in the active substance preparation of the desired concentration and filled with fall armyworm larvae (Spodoptera exigua), while the leaves are still moist.
(§4) After the desired time the mortality in % is determined. In doing so, 100% means that all larvae were killed; 0% means that no larvae were killed.

[6] = system: Heliothis armigera larvae; test: Heliothis armigera test (soy sprouts, immersion); format: in vivo; details: Helicoverpa armigera, 168 h, 100 ppm active substance, after 7 days
Protocol: as §2, §3, §1
Soy sprouts (Glycine max) are treated through immersion in the active substance preparation of the desired concentration and filled with Heliothis armigera larvae, while the leaves are still moist.
as §4

[7] = system: cabbage moth larvae (Plutella xylostella); test: Plutella test (cabbage leaves, immersion); format: in vivo
Protocol: as §2, §3, §1
Cabbage leaves (Brassica oleracea) are treated through immersion in the active substance preparation of the desired concentration and filled with cabbage moth larvae (Plutella xylostella), while the leaves are still moist.
as §4

[8] = 100 ppm active substance, after 7 days, cabbage leaves

Structure (SMILES): COc1c(Cl)cc(OCC=C(Cl)Cl)cc1C1=NOC(CCCOc2ccc(OCC(F)(F)F)nc2)C1 (racemic) [Example I-7, (R/S)-3-(2-methoxy-3-chloro-5-(dichloropropenoxy)phenyl)-5-((6-trifluorethoxypyridin-3-yl)-3-(propyl)ether-1-yl)Δ^2-isoxazoline]
Effect in % after 7 days [1]: 100%
Effect in % after 7 days [2]: 80%

logP ([3]; read-out: log P): 5.99
Structure (SMILES): COc1c(Cl)cc(OCC=C(Cl)Cl)cc1-c1nc(CCCOc2ccc(C(F)(F)F)cn2)no1 [Example I-128, 2-(3-{5-[3-chloro-5-(3,3-dichloro-allyloxy)-2-methoxy-phenyl]-[1,2,4]oxadiazol-3-yl}-propoxy)-5-trifluoromethyl-pyridine]

Structure (SMILES): COc1c(Cl)cc(OCC=C(Cl)Cl)cc1C1=NOC(CCCCOc2ccc(C(F)(F)F)cn2)C1 (racemic) [Example I-10, (R/S)-3-(2-methoxy-3-chloro-5-(dichloropropenoxy)phenyl)-5-((5-trifluormethylpyridin-2-yl)-4-(butyl)ether-1-yl)Δ^2-isoxazoline]
Effect in % after 7 days [1]: 100%
Effect in % after 7 days [2]: 80%

Structure (SMILES): COc1c(Cl)cc(OCC=C(Cl)Cl)cc1C1=NOC(CCCOc2ccc(C(F)(F)F)cn2)C1 (racemic) [Example I-1, (R/S)-3-(2-methoxy-3-chloro-5-(1,1-dichloro-1-propen-3-oxy)-phenyl)-5-((5-trifluormethylpyridin-2-yl)-3-(propyl)ether-1-yl)-Δ^2-isoxazoline]
Effect in % after 7 days [1]: 100%
Effect in % after 7 days [2]: 100%
Effect in % after 14 days [4]: 80%
mortality at 100 ppm ([5]; Spodoptera exigua, 168 h): 100%
mortality at 100 ppm [6]: 100%
mortality at 100 ppm ([7]; Plutella xylostella, 168 h): 100%

logP ([3]; neutral, read-out: log P (neutral)): 4.93
Structure (SMILES): COc1ccc(OCC=C(Cl)Cl)cc1-c1noc(CCCOc2ccc(C(F)(F)F)cn2)n1 [Example I-127, 2-(3-{3-[5-(3,3-dichloro-allyloxy)-2-methoxy-phenyl]-[1,2,4]oxadiazol-5-yl}-propoxy)-5-trifluoromethyl-pyridine]

Structure (SMILES): COc1c(Cl)cc(OCC=C(Cl)Cl)cc1C1=NOC(CCOc2ccc(OCC(F)(F)F)nc2)C1 (racemic) [Example I-6, (R/S)-3-(2-methoxy-3-chloro-5-(dichloropropenoxy)phenyl)-5-((6-trifluorethoxypyridin-3-yl)-2-(ethyl)ether-1-yl)Δ^2-isoxazoline]
Effect in % after 7 days [1]: 100%
mortality [5, 8]: 100%
mortality [7, 8]: 100%

Structure (SMILES): COc1c(Cl)cc(OCC=C(Cl)Cl)cc1C1=NOC(COc2ccc(C(F)(F)F)cn2)C1 (racemic) [Example I-5, (R/S)-3-(2-methoxy-3-chloro-5-(dichlorpropenoxy)phenyl)-5-((5-trifluormethylpyridin-2-yl)-2-(methyl)ether-1-yl)Δ^2-isoxazoline]
Effect in % after 7 days [1]: 10%

Structure (SMILES): COc1c(Cl)cc(OCC=C(Cl)Cl)cc1-c1cc(CCOc2ccc(C(F)(F)F)cn2)on1 [Example I-9, 3-(2-methoxy-3-chloro-5-(dichloropropenoxy)phenyl)-5-((5-trifluormethylpyridin-2-yl)-2-(ethyl)ether-1-yl)isoxazole]
Effect in % after 7 days [1]: 100%
Effect in % after 7 days [2]: 90%

logP ([3]; pH=2.3, read-out: log P(pH=2.3)): 2.05
Structure (SMILES): COc1c(Cl)cc(OCC=C(Cl)Cl)cc1C1=NC(CO)CO1 (centres unmarked) [{2-[3-chloro-5-(3,3-dichloro-allyloxy)-2-methoxy-phenyl]-4,5-dihydro-oxazol-4-yl}-methanol]

Structure (SMILES): COc1c(Cl)cc(OCC=C(Cl)Cl)cc1C1=NOC(CCOc2ccc(OCC(F)(F)F)nc2)C1 (racemic) [Example I-11, (R/S)-3-(2-methoxy-3-chloro-5-(dichloropropenoxy)phenyl)-5-((6-trifluorethoxypyridin-3-yl)-2-(ethyl)ether-1-yl)Δ^2-isoxazoline]
Effect in % after 7 days [1]: 100%
